{"source": "patent US20260130900A1", "about": "“Controlled Release Pharmaceutical Composition” (Daewoong Pharmaceutical Co., Ltd., priority 2022, published 2026)", "test": "Single-dose escalating clinical testing, safety/tolerability of the active ingredient", "format": "in vivo, human", "source_text": "In order to confirm the safety/tolerability of the active ingredient in the human body, side effects were checked in healthy adult subjects.\nThe clinical testing was designed for 32 healthy adult subjects in a randomized, double-blinded, placebo-controlled, single-dose escalating manner, as shown in Table 1 below. The capsule tablets used in this clinical testing were produced by using Vcaps® enteric-coated capsules containing only the active ingredient in hydrochloride form without additional excipients, and filling capsules by volume. The ingredients of the enteric-coated tablet (1 tablet) used in the clinical testing are shown in Table 2 below, and were named ‘Comparative Example 1’. In addition, for the enteric-coated tablet administrated group, 5 tablets were administered at a time."}
{"smiles": "O[C@H]1CCCN[C@@H]1CCCn1cnc2c(Cl)c(Cl)ccc21", "note": "[API, (2R,3S)-2-(3-(4,5-dichloro-1H-benzo[d]imidazol-1-yl)propyl) piperidin-3-ol 1HCl]", "values": [{"measurement": "time of occurrence of nausea and vomiting side effects versus exposure in the body", "setting": "single administration, FIG. 1", "result": "the majority of cases occur before the blood concentration in the body increases"}, {"measurement": "most frequently occurring adverse reactions", "setting": "single oral administration 100-600 mg, enteric coated capsule or tablet, healthy adult subjects", "result": "gastrointestinal adverse reactions including nausea, vomiting, diarrhea, and abdominal pain"}]}
